Reference: US20020137929A1, “1 - (3-heterocyclylphenyl) isothiourea, -isourea, -guanidine and -amidine herbicidal agents” (Intellectual Property Department, BASF Aktiengesellschaft, priority 1998, published 2002)

What was measured:
[1] = system: ORYSAT (Rice, Tebonnet); assay: Preemergence herbicidal evaluation; type: in vivo, Oryza sativa, (L.) Tebonnet; conditions: rated 4-5 weeks after treatment
Procedure, shortened: (§1)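 Greenhouse preemergence test: seed-soil mix sown on ~1 inch soil; aqueous acetone spray at equivalent of ~0.0156–0.500 kg/ha; greenhouse-held and watered; scored 0–9 visually at 4–5 weeks.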

[2] = system: CYPSE (Flatsedge); assay: Preemergence weed control under flooded paddy conditions; type: in vivo, Cyperus serotinus; conditions: rated 3-4 weeks after treatment
Procedure, shortened: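 Silt loam, seeds in top 0.5 cm; flood held 1.5-3 cm; test cpd as acetone/water 50/50 into flood water, ~0.0313-0.500 kg/ha a.i.; greenhouse 3-4 wk; visual 0-9 score vs control.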

[3] = system: ECHCG (Barnyardgrass); assay: Postemergence herbicidal evaluation; type: in vivo, Echinochloa crus-galli; conditions: postemergence
Procedure, shortened: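 Visual 0-9 injury score (stand, vigor, malformation, size, chlorosis, appearance vs untreated) taken four to five weeks post-spray, averaged across repeat tests. Test plants about two weeks old; foliar spray of acetone/water (1:1) with 0.5% surfactant delivering ~0.0156-0.500 kg active/ha.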

[4] = system: CHEAL (Lambsquarters, Common); assay: Preemergence herbicidal evaluation; type: in vivo, Chenopodium album; conditions: rated 4-5 weeks after treatment
Procedure, shortened: as §1

[5] = system: ECHORC (Watergrass (Calif.)); assay: Preemergence weed control under flooded paddy conditions; type: in vivo, Echinochloa oryzoides; conditions: rated 3-4 weeks after treatment
Procedure, shortened: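 Flooded-pot preemergence screen with silt loam and seeds in the upper 0.5 cm. Dose about 0.0313 to 0.500 kg/ha, delivered into flood water; visual 0-9 score after 3 to 4 weeks.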

[6] = rate 0.0625 kg/ha, rating scale 0-9
[7] = rate 0.1250 kg/ha, rating scale 0-9
[8] = rate 0.2500 kg/ha, rating scale 0-9
[9] = rate 0.0156 kg/ha, rating scale 0-9
[10] = rate 0.0313 kg/ha, rating scale 0-9

SMILES | herbicidal effect rating, CYPSE ([2]; 0.1250 kg/ha) | herbicidal rating ECHCG ([3]; rate 0.0156 kg/ha) | herbicidal rating ECHCG ([3]; rate 0.0313 kg/ha) | herbicidal rating ECHCG ([3]; rate 0.0625 kg/ha) | herbicidal effect rating, ECHORC ([5]; 0.0313 kg/ha) | herbicidal effect rating, ECHORC ([5]; 0.0625 kg/ha) | herbicidal effect rating, ECHORC ([5]; 0.1250 kg/ha) | herbicidal effect rating, ECHORC ([5]; 0.2500 kg/ha) | Preemergence herbicidal rating ORYSAT ([1]; rate 0.0156 kg/ha) | Preemergence herbicidal rating ORYSAT ([1]; rate 0.0313 kg/ha) | Preemergence herbicidal rating ORYSAT ([1]; rate 0.0625 kg/ha) | Preemergence herbicidal rating ORYSAT ([1]; rate 0.1250 kg/ha) | Preemergence herbicidal rating ORYSAT ([1]; rate 0.2500 kg/ha) | CYPSE herbicidal effect rating ([2]; 0.1250 kg/ha) | CYPSE herbicidal effect rating ([2]; 0.2500 kg/ha) | Preemergence herbicidal rating CHEAL ([4]; rate 0.0313 kg/ha) | Preemergence herbicidal rating CHEAL ([4]; rate 0.0625 kg/ha) | Preemergence herbicidal rating CHEAL ([4]; rate 0.1250 kg/ha) | Preemergence herbicidal rating CHEAL ([4]; rate 0.2500 kg/ha) | ECHORC herbicidal effect rating ([5]; 0.1250 kg/ha) | further results
Cn1c(C(F)(F)F)cc(=O)n(-c2cc(N=C3SCC(=O)N3CC(F)(F)F)c(Cl)cc2F)c1=O [Compound 163, 3-{4-Chloro-2-fluoro-5-{[4-oxo-3-(2,2,2-trifluoroethyl)-2-thiazolidinylidene]amino}phenyl}-1-methyl-6-(trifluoromethyl)-2,4(1H,3H)-pyrimidinedione] | 9.0 | 0.0 | 0.0 | 1.0 | 9.0 | 9.0 | 9.0 | 9.0 |  |  |  |  |  |  |  |  |  |  |  |  | Preemergence herbicidal rating ORYSAT ([1]; 0.0156 kg/ha): 1.0; Preemergence herbicidal rating ORYSAT ([1]; 0.0313 kg/ha): 3.0; Preemergence herbicidal rating ORYSAT ([1]; 0.0625 kg/ha): 5.0; Preemergence herbicidal rating ORYSAT ([1]; 0.1250 kg/ha): 7.0; Preemergence herbicidal rating ORYSAT ([1]; 0.2500 kg/ha): 8.0; herbicidal effect rating, CYPSE ([2]; 0.2500 kg/ha): 9.0; Preemergence herbicidal rating CHEAL ([4]; 0.0156 kg/ha): 9.0; Preemergence herbicidal rating CHEAL ([4]; 0.0313 kg/ha): 9.0; Preemergence herbicidal rating CHEAL ([4]; 0.0625 kg/ha): 9.0; Preemergence herbicidal rating CHEAL ([4]; 0.1250 kg/ha): 9.0; Preemergence herbicidal rating CHEAL ([4]; 0.2500 kg/ha): 9.0
COC(=O)[C@H](Cc1ccccc1)N1C(=O)CS/C1=N/c1cc(-n2c(=O)cc(C(F)(F)F)n(C)c2=O)c(F)cc1Cl [Compound 72, Methyl α-benzyl-2-{{2-chloro-5-[3,6-dihydro-3-methyl-2,6-dioxo-4-(trifluoromethyl)-1(2H)-pyrimidinyl]-4-fluorophenyl]imino}-4-oxo-3-thiazolidineacetate, L-] |  |  |  |  |  |  |  |  | 0.0 | 0.0 | 0.0 | 1.0 | 1.0 | 9.0 | 9.0 | 9.0 | 9.0 | 9.0 | 9.0 | 9.0 | CYPSE herbicidal effect rating ([2]; 0.0313 kg/ha): 0.0; CYPSE herbicidal effect rating ([2]; 0.0625 kg/ha): 0.0; ECHCG herbicidal rating ([3]; rate 0.0158 kg/ha): 1.0; ECHCG herbicidal rating ([3]; rate 0.0315 kg/ha): 3.0; ECHCG herbicidal rating ([3]; rate 0.0630 kg/ha): 3.0; Preemergence herbicidal rating CHEAL ([4]; rate 0.0156 kg/ha): 9.0; ECHORC herbicidal effect rating ([5]; 0.0313 kg/ha): 9.0; ECHORC herbicidal effect rating ([5]; 0.0625 kg/ha): 9.0; ECHORC herbicidal effect rating ([5]; 0.2500 kg/ha): 9.0
COCCN1C(=O)CSC1=Nc1cc(-n2c(=O)cc(C(F)(F)F)n(C)c2=O)c(F)cc1Cl [Compound 155, 3-{4-Chloro-2-fluoro-5-{[3-(2-methoxyethyl)-4-oxo-2-thiazolidinylidene]amino}phenyl}-1-methyl-6-(trifluoromethyl)-2,4(1H,3H)-pyrimidinedione] | 0.0 | 0.0 | 0.0 | 0.0 | 4.0 | 4.0 | 4.0 | 4.0 |  |  |  |  |  |  |  |  |  |  |  |  | Preemergence herbicidal rating ORYSAT [1, 6]: 0.0; Preemergence herbicidal rating ORYSAT [1, 7]: 0.0; Preemergence herbicidal rating ORYSAT [1, 8]: 2.0; herbicidal effect rating, CYPSE ([2]; 0.0313 kg/ha): 0.0; herbicidal effect rating, CYPSE ([2]; 0.0625 kg/ha): 0.0; Preemergence herbicidal rating CHEAL [4, 6]: 0.0; Preemergence herbicidal rating CHEAL [4, 7]: 9.0; Preemergence herbicidal rating CHEAL [4, 8]: 9.0
CCCCOC(=O)CN1C(=O)CSC1=Nc1cc(-n2c(=O)cc(C(F)(F)F)n(C)c2=O)c(F)cc1Cl [Compound 111] |  |  |  |  |  |  |  |  | 0.0 | 0.0 | 0.0 | 1.0 | 5.0 | 9.0 | 9.0 | 0.0 | 9.0 | 9.0 | 9.0 | 6.0 | CYPSE herbicidal effect rating ([2]; 0.0625 kg/ha): 4.0; herbicidal rating ECHCG ([3]; rate 0.0158 kg/ha): 3.0; herbicidal rating ECHCG ([3]; rate 0.0315 kg/ha): 4.0; herbicidal rating ECHCG ([3]; rate 0.0630 kg/ha): 9.0; ECHORC herbicidal effect rating ([5]; 0.0313 kg/ha): 0.0; ECHORC herbicidal effect rating ([5]; 0.0625 kg/ha): 3.0; ECHORC herbicidal effect rating ([5]; 0.2500 kg/ha): 7.0
Cn1c(C(F)(F)F)cc(=O)n(-c2cc(N=C3SCC(=O)N3C3CCOC3=O)c(Cl)cc2F)c1=O (stereo not drawn) [Compound 73] |  |  |  |  |  |  |  |  | 0.0 | 0.0 | 2.0 | 2.0 | 4.0 | 2.0 | 4.0 | 9.0 | 9.0 | 9.0 | 9.0 | 3.0 | ECHCG herbicidal rating ([3]; rate 0.0158 kg/ha): 2.0; ECHCG herbicidal rating ([3]; rate 0.0315 kg/ha): 2.0; ECHCG herbicidal rating ([3]; rate 0.0630 kg/ha): 3.0; Preemergence herbicidal rating CHEAL ([4]; rate 0.0156 kg/ha): 9.0; ECHORC herbicidal effect rating ([5]; 0.2500 kg/ha): 7.0
Cn1c(C(F)(F)F)cc(=O)n(-c2cc(N=C3SCC(=O)N3Cc3ccc(Cl)cc3)c(Cl)cc2F)c1=O [Compound 145, 3-{4-Chloro-5-{[3-(p-chlorobenzyl)-4-oxo-2-thiazolidinylidene]amino}-2-fluorophenyl}-1-methyl-6-(trifluoromethyl)-2,4(1H,3H)-pyrimidinedione] | 9.0 | 2.0 | 3.0 | 3.0 | 6.0 | 6.0 | 7.0 | 7.0 |  |  |  |  |  |  |  |  |  |  |  |  | Preemergence herbicidal rating ORYSAT [1, 9]: 1.0; Preemergence herbicidal rating ORYSAT [1, 10]: 1.0; Preemergence herbicidal rating ORYSAT [1, 6]: 2.0; Preemergence herbicidal rating ORYSAT [1, 7]: 3.0; Preemergence herbicidal rating ORYSAT [1, 8]: 1.0; herbicidal effect rating, CYPSE ([2]; 0.2500 kg/ha): 9.0; Preemergence herbicidal rating CHEAL [4, 9]: 7.0; Preemergence herbicidal rating CHEAL [4, 10]: 9.0; Preemergence herbicidal rating CHEAL [4, 6]: 7.0; Preemergence herbicidal rating CHEAL [4, 7]: 9.0; Preemergence herbicidal rating CHEAL [4, 8]: 9.0
